Data taken from US20250213647A1, “CHEMOKINE RECEPTORS AND ALPHA1 ADRENERGIC RECEPTORS/VASOPRESSIN RECEPTORS 1A HETEROMERS AS DRUG TARGETS FOR DISEASE” (UNIVERSITY OF SOUTH FLORIDA, priority 2022, published 2025).

Key:
[1] = target: CCR2:α1b-AR heteromers (Homo sapiens, UniProt P35368+P41597); assay: PRESTO-Tango β-arrestin recruitment assay, HTLA cells with CCR2-Tango plus α1b-AR; assay type: cell-based; set-up: Tango module of the TANGO vector (C); expressed in transfected cells; host or cells: HTLA
CCR2:α1b-AR heteromers, sequence (P41597 whole entry): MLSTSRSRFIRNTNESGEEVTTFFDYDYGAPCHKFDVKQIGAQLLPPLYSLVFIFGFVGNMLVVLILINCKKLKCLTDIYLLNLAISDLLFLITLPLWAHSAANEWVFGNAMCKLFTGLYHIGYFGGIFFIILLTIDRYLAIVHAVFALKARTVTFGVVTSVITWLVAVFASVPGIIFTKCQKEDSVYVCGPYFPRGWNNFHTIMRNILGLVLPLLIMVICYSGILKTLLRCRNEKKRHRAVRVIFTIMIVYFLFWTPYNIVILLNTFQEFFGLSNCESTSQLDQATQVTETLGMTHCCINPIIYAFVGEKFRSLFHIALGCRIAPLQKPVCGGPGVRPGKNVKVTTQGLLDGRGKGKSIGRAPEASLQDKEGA
CCR2:α1b-AR heteromers, sequence (P35368 whole entry): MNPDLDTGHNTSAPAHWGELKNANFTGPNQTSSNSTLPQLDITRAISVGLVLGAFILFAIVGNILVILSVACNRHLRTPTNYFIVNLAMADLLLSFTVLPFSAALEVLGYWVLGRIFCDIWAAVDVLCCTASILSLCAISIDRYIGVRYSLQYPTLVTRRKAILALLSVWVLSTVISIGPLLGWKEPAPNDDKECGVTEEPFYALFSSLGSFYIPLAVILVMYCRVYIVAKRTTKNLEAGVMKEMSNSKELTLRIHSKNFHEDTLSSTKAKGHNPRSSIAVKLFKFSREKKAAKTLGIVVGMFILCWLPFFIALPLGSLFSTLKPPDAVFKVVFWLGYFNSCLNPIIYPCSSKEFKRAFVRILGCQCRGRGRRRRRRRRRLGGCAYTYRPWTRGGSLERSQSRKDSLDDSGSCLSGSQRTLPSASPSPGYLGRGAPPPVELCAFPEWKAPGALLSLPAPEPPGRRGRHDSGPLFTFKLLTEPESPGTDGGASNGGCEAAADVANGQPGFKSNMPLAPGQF
Procedure: The assays were performed as described previously (Albee, 2017; Gao, 2022; Albee, 2018; Eby, 2017; Cheng, 2017). HTLA cells were seeded in a 6-well plate and transfected with 750 ng FLAG-CCR2-Tango together with 750 ng pcDNA3.1 or HA-α1b-AR using TransIT-2020 Transfection Reagent. The next day, cells (75,000 cells/well) were plated onto poly-L-Lysine pre-coated 96-well plates and allowed to attach to the plate surface for at least 4 hours prior to treatment. Cells were treated with receptor ligands at the concentrations indicated in the figure legends for 2 h and then replaced with fresh full medium and incubated overnight at 37° C., 5% CO2 in a humidified environment. The following morning, medium was replaced with a 100 μL 1:10 mixture of Bright-Glo (Promega) and PBS. Plates were then incubated at room temperature for 10 min before measuring luminescence on a Biotek Synergy II plate reader. Relative luminescence units (RLU) are expressed as fold changes of RLU vs unstimulated cells.

[2] = test system: CXCR4; assay: Chemotaxis assay, THP-1 cells toward CXCL12 (CXCR4-mediated); assay type: cell-based, human; conditions: CXCL12 100 nM, mean±SE, read-out: IC50 for inhibition of CXCR4-mediated chemotaxis
Procedure: (§1) Cell migration was measured employing the Neuroprobe (Gaithersburg, MD, USA) ChemoTx® Disposable Chemotaxis System. A 96-well Boyden-chamber (30 μL/well, 8 μm pores, 1×10^5 pores/cm^2 pore density) was selected for all chemotaxis experiments. Bottom wells of the Boyden-chamber were loaded with 30 μL of test substances at various concentrations. Top wells of the membrane were loaded with 25 μL of THP-1 cells, THP-1_ADRA1B^KO, wild type THP-1 cells after clonal expansion (=control for THP-1_ADRA1B^KO) or freshly isolated monocytes (200 cells/μL). THP-1 cells were suspended in depleted RPMI1640 (0.5% HyClone™ fetal bovine serum, Sigma); Freshly isolated monocytes were suspended in RPMI1640 (0.5% human platelet poor plasma, Sigma). After 3 hours, transmigrated cells were counted utilizing the Cytation 1 plate reader (BioTek) by direct imaging in high contrast bright field (4×) and post-imaging particle analyses with Gen5 (v3.05) Imaging & Microscopy Software (BioTek). The chemotactic index (CI) was calculated as the ratio of cells that transmigrated in the presence versus the absence of the test solutions.

[3] = target: T1, CCR2 (Homo sapiens, UniProt P41597); set-up: host or cells: THP-1; conditions: previous finding (Enten, 2022); cited from earlier work
T1 sequence (P41597 whole entry): as the sequence (P41597 whole entry) above

[4] = test system: leukocyte infiltration into dorsal air pouches; assay: Murine air pouch model, leukocyte infiltration; assay type: in vivo, C57BL/6 mice; conditions: co-injected into the air pouch; phenylephrine 10-100 mg/kg, phentolamine 5-50 mg/kg; 24 h; FIG. 9B-D
Procedure: All procedures were performed according to the National Institutes of Health Guidelines for Use of Laboratory Animals and were approved by the Institutional Animal Care and Use Committee of the University of South Florida (IS00010570). Male and female C57BL/6 mice (20-25 g) were obtained from Envigo (Indianapolis, IN). Six days prior to the start of the experiments, mice were anesthetized with 1.7% sevoflurane, the dorsal cervical/thoracic region was shaved, disinfected with 70% ethanol and 3 mL of sterile air were injected subcutaneously (s.c.) to create an air pouch. […] 5 ml ice cold lavage fluid was injected into each air pouch using a syringe with a 23-G, 1-inch needle, the air pouch was gently massaged for 60 seconds, the lavage fluid was harvested using the same syringe and needle and the recovered volume was recorded. […] Erythrocytes in the cell pellets were lysed with Invitrogen 1× RBC lysis buffer and the harvested air pouch cells analyzed by flow cytometry.
Harvested air pouch cells were incubated with APC-conjugated anti-mouse CD45 or APC-conjugated immunoglobulin G 2B (IgG2B; isotype control) for 145 min in the dark at room temperature. […] Cells were then washed again, resuspended in PBS, and the cell-associated light scatter and fluorescence were determined with a LSRII instrument (Becton Dickinson). […]

[5] = target: T1, CCR2; assay: BRET assay for β-arrestin recruitment, HEK293T with CCR2-Rluc and β-arrestin-YFP without α1b-AR; assay type: cell-based; conditions: 10 μM PE, PT or 100 nM INCB3284, FIG. 5C
Procedure: β-arrestin recruitment was measured by BRET, as described (Armando, 2014; Berchiche, 2011). In brief, HEK293T cells were plated in a 6-well plate and transfected with 0.1 μg of CCR2-RluII and 1.9 μg β-arrestin-YFP with 0.1 μg pcDNA3.1 or α1b-AR. One day after transfection, cells were re-plated into 96-well poly-L lysine precoated plates. After overnight incubation, cells were replaced with 0.1% glucose/PBS. Coelenterazine H in a final concentration of 5 μM was added to cells and incubated at room temperature for 3 min. […] The BRET changes were calculated by subtracting the BRET signal of untreated cells.

[6] = test system: CCR8; assay: Chemotaxis assay, THP-1 cells toward CCL1 (CCR8-mediated); assay type: cell-based, human
Procedure: as §1

[7] = target: T1, CCR2; assay: Chemotaxis assay, THP-1 cells toward CCL2 (CCR2-mediated); assay type: cell-based; set-up: host or cells: THP-1; conditions: CCL2 10 nM, mean±SE, read-out: IC50 for inhibition of CCR2-mediated chemotaxis
Procedure: as §1

[8] = test system: CR heteromerization partners of α1B/D-ARs (CCR1, CCR2, CXCR4); assay: Chemotaxis assay, THP-1 cells, CR heteromerization partners of α1B/D-ARs taken together; assay type: cell-based, human; conditions: for chemotactic dose-responses for CCL23, CCL2 and CXCL12 in the presence of the ligand: 10 μM of phenylephrine or phentolamine, FIG. 17G-17I
Procedure: as §1

[9] = target: T2, α1b-AR:CCR2 heteromer (Homo sapiens, UniProt P35368+P41597); assay: Gαi activation assay (TRUPATH BRET), HEK293T cells transfected with CCR2 plus α1b-AR; assay type: cell-based; conditions: for Gαi1 activation by the ligand alone: cells transfected with α1b-AR alone, CCR2 alone or CCR2 plus α1b-AR, FIG. 4A
T2 construct: expressed in transfected cells; host or cells: HEK293T
T2 sequence (P41597 whole entry): as above
T2 sequence (P35368 whole entry): as the sequence (P35368 whole entry) above
Procedure: HEK293T cells were plated in a 6-well plate and transfected with 0.2 μg each of Gαi1-Rluc8, Gβ3 and Gγ9-GFP2 (Trupath) together with 0.2 μg of mouse or human CCR2 with either pcDNA3.1 or α1b-AR. One day after transfection, cells were trypsinized and replated to 96-well poly-L lysine precoated plates. After overnight incubation, cells were replaced with 0.1% glucose/PBS. Prolume Purple (NanoLight Tech.) or coelenterazine 400a in a final concentration of 5 μM were added in experiments with human or mouse CCR2, respectively, and incubated at room temperature for 3 min. Ligands at various concentrations were added to cells and incubated at room temperature for 5 min before luminescence was measured at 410 nm and 515 nm. […] The BRET changes were calculated by subtracting the BRET signal of untreated cells.

[10] = test system: α1B/D-AR, CCR1, CCR2, CXCR4, CCR8; assay: Proximity ligation assay, individual receptors on THP-1 cells; conditions: 10 μM, 30 min at 37° C., FIG. 6; for cell surface expression of α1B/D-AR, CCR1, CCR2 and CXCR4 (PLA signals): vs vehicle
[11] = test system: CXCR4; conditions: previous observations (Gao, 2018); cited from earlier work

CNC[C@H](O)c1cccc(O)c1 [phenylephrine]
efficacy to induce β-arrestin recruitment to CCR2 ([1]; agonist alone): 2.4±0.14 fold change RLU
increase of the efficacy of CCL2 to recruit β-arrestin to CCR2 ([1]; co-stimulated with CCL2 and 1 μM PE vs CCL2 alone): 3 fold
efficacy of CCL2 to recruit β-arrestin to CCR2 in the presence of the ligand ([1]; co-stimulated with CCL2 and 1 μM PE, FIG. 5B): 130±12 fold change RLU
IC50 [2]: 17 ± 29 nM
binding affinity of CCR2 for CCL2 [3]: did not affect
leukocyte infiltration induced by LPS, CCL2 or CXCL12 [4]: inhibited in a dose-dependent manner
effect on the CCL2-induced BRET signal (CCR2-Rluc / β-arrestin-YFP) [5]: not affected
CCR8-mediated chemotaxis [6]: did not affect
IC50 [7]: 7.5 ± 7.7 nM
chemotactic dose-responses for CCL23, CCL2 and CXCL12 in the presence of the ligand [8]: inhibited chemotaxis over the complete range of chemokine concentrations
inhibition of chemotaxis mediated via CR heteromerization partners of α1B/D-ARs ([8]; FIG. 17A): 50-55%
bottom plateau, CCL2-induced Gαi activation in the presence of the ligand ([9]; CCL2 plus 1 μM NE, FIG. 4D): −0.031±0.002
bottom plateau, CCL2-induced Gαi activation in the presence of the ligand ([9]; CCL2 plus 10 μM PE, FIG. 4C): −0.03±0.002
Gαi1 activation by the ligand alone [9]: did not activate Gαi1
expression of CCR8 (PLA signals) [10]: not affected
cell surface expression of α1B/D-AR, CCR1, CCR2 and CXCR4 (PLA signals) [10]: reduced
CXCR4-mediated chemotaxis of primary human vascular smooth muscle cells [11]: inhibit

Cc1ccc(N(CC2=NCCN2)c2cccc(O)c2)cc1 [phentolamine]
effect on CCL2-induced β-arrestin recruitment to CCR2 ([1]; 1 μM PT, FIG. 5B): did not affect
β-arrestin recruitment to CCR2-Tango by the ligand ([1]; cells co-transfected with CCR2-Tango plus α1b-AR, FIG. 5A): had no effect
IC50 [2]: 0.2 ± 0.2 nM
binding affinity of CCR2 for CCL2 [3]: did not affect
leukocyte infiltration induced by LPS, CCL2 or CXCL12 [4]: inhibited in a dose-dependent manner
effect on the CCL2-induced BRET signal (CCR2-Rluc / β-arrestin-YFP) [5]: not affected
CCR8-mediated chemotaxis [6]: did not affect
IC50 [7]: 2.7 ± 3.5 nM
chemotactic dose-responses for CCL23, CCL2 and CXCL12 in the presence of the ligand [8]: inhibited chemotaxis over the complete range of chemokine concentrations
bottom plateau, CCL2-induced Gαi activation in the presence of the ligand ([9]; CCL2 plus 10 μM PT, FIG. 4F): −0.033±0.002
Gαi1 activation by the ligand alone [9]: did not activate Gαi1
cell surface expression of α1B/D-AR, CCR1, CCR2 and CXCR4 (PLA signals) [10]: did not affect
CXCR4-mediated chemotaxis of primary human vascular smooth muscle cells [11]: inhibit
